# Patent US20210378247A1 (priority 2018, published 2021)
# Experiments:
# Assay type in all cases: in vivo
# Mycosphaerella fijiensis = assay: Grand Nain leaf piece assay, black sigatoka control; details: Grand Nain leaf pieces, strains 1×10^8 CFU/mL, mancozeb 10 ppm
# Protocol: The susceptible musa cultivar Grand Nain was used. Plants were maintained in the greenhouse for a constant supply of disease-free leaves. The inoculum used in this evaluation was a M. fijiensis culture obtained from the International of Tropical Agriculture (IITA), Ibadan, Nigeria and was maintained on V8 Juice agar.
# Smaller leaf pieces (4 cm long×3 cm wide) were cut from the excised leaf. Two leaf pieces were placed in plastic petri dishes with adaxial side on agar amended with 5 mg/liter gibberellic acid. Leaf pieces were sprayed with 120 μL of bacterial strain (1×10^8 CFU/mL of sterile distilled water) using a fingertip sprayer. Petri dishes with leaf pieces were incubated at room temperature in the dark for 24 h. Leaf pieces were then inoculated with a mycelial suspension of M. fijiensis, Mycelial fragments scraped from growing cultures were cut in smaller mycelial tips in sterile distilled (in 50 ml conical tubes) using a homogenizer (Omni International, Kennesaw, Ga.). […]
# Data recorded was the most progressed stage on inoculated leaves at the time of data collection (there are six recognized stages for black sigatoka symptom development). Data was analyzed using analysis of variance (ANOVA) in PROC GLM of SAS (version 9.4; SAS Institute Inc., Cary, N.C.) and significant differences (P<0.05) were observed among treatments.
# [1] = test system: Colletotrichum sublineolum; assay: Greenhouse assay, sorghum anthracnose on sorghum plants; details: greenhouse sorghum plants cv. Seso3; strains 5 g/L sprayed weekly for three weeks
# Protocol: Sorghum plants (cv. Seso3) were planted in the greenhouse. Thirty five days post planting, the plants were treated with microbial strains (AIP029105, AIP075655 or AIP061382) at the rate of 5 g/L. Other treatments included inoculated check and a fungicide (Mancozeb). The treatments were arranged in a randomized complete block design with three replications, each consisting of three plants. The treatments were sprayed onto the plant until run off. Treatment with biocontrol was done weekly for three consecutive weeks.
# One day post treatment, the plants were inoculated with a suspension of Colletotrichum sublineolum spores. The inoculum was prepared from a fungal isolate obtained from naturally infected sorghum in Eastern Uganda. The isolate was cultured on potato dextrose agar (PDA; Farm Eur. Laboratories Madrid, Spain), at 26-28° C. for two weeks to achieve sporulation. […]
# Disease incidence was carried out by observing individual plants for the appearance of anthracnose symptoms, starting at 7 days post inoculation, and thereafter on a weekly basis for five weeks. Any plant showing anthracnose symptoms was recorded and contributed to the overall number of infected plants (incidence) succumbing to the disease irrespective of the severity. […] Data was analyzed using analysis of variance (ANOVA) in JMP® (version 14.0.0; SAS Institute Inc., Cary, N.C.).
# [2] = test system: Colletotrichum sublineolum; assay: Sorghum detached leaf assay, anthracnose disease control; details: strains 1×10^8 CFU/mL, pyraclostrobin 10 ppm, severity assessed after 7 days
# Protocol: Sorghum cultivar 12-GS9016-KS585 was grown in the greenhouse for a steady supply of leaf tissue for the bacterial strain evaluation. Fully expanded sorghum leaves from 4-6 weeks old plants were excised and cut into equal pieces, 2.5 cm wide. Colletotrichum sublineolum, (obtained from the Dr. Isakeit laboratory at Texas A&M University) was grown on 20% Oatmeal agar for 14 days. The actively growing culture was flooded with sterile distilled water, dislodging the spores. The concentration of the suspension was then adjusted to 1×10^6 spores/mL. Tween 20 was then added to the suspension to 0.05%.
# Each of the bacterial strains of interest was streaked onto Luria Bertani (LB) agar petri plates. A single colony was picked and placed in 50 ml of LB liquid medium or in liquid culture (CHA medium; per L, NaCl (5 g), tryptone (10 g), nutrient broth (8 g), CaCl2 (0.14 mM), MgCl2.6H2O (0.2 mM), and MnCl2.4H2O (0.01 mM)) in a 250-ml flask. […]
# Anthracnose severity was assessed on a scale of 0-4 after 7 days according to Prom, et al., 2016 (Plant Path J. 15(1): 11-16), with few modifications. […] Results (Table 4) were analyzed using analysis of variance (ANOVA) in JMP® (version 13.2.1; SAS Institute Inc., Cary, N.C.) and significant differences (P<0.05) were observed among bacterial strains.
# Phakopsora pachyrhizi = assay: Soybean detached leaf disk assay, soybean rust control; details: detached leaf disks, strains 1×10^8 CFU/mL, azoxystrobin 0.5 ppm
# Protocol: The susceptible soybean cultivar Williams 82 was used. Soybean plants were planted every 2 weeks and placed inside a growth chamber (Percival Scientific, Inc., Boone, Iowa) maintained at 75% relative humidity with a cycle of 14 h of light (350 μmol m^−2 s^−1 PAR) and 10 h of darkness at 24 and 23° C., respectively, for a constant supply of 2 to 3 week-old rust-free leaves. A mixture of P. pachyrhizi urediniospores obtained from infected soybean leaves collected from Gadsden County, Fla. in 2015 and 2016 was used in this experiment. The details of maintenance and increase of P. pachyrhizi urediniospores have been described elsewhere (Twizeyimana and Hartman 2010, Plant Dis. 94:1453-1460).
# Leaf disks (3.5-cm diameter each) were sprayed with 120 μL of each bacterial strain of interest (1×10^8 CFU/mL of sterile distilled water) using a fingertip sprayer (Container & Packaging Supply, Eagle, Id.) fitted to a 15 mL conical centrifuge tube (Fisher Scientific, Cat No. 14-59-53A). […]
# Rust severity was scored by counting the number of sporulating uredinia in two arbitrarily selected 1-cm diameter circle of leaf tissue from an inoculated leaf disk (Table 7). Data was analyzed using analysis of variance (ANOVA) in PROC GLM of SAS (version 9.4; SAS Institute Inc., Cary, N.C.) and significant differences (P<0.05) were observed among treatments.
# Podosphaera xanthii = assay: Detached squash leaf disk assay, powdery mildew control; details: detached squash leaf disks, tebuconazole 10 ppm, incubated six days
# Protocol: Leaf disks of healthy squash leaves were excised and cut into uniform leaf disks 35 mm in diameter using a large cork borer. An experimental unit consisted of a single leaf disk, each treated with a suspension of the selected bacterium. Treatments included AgBiome strains AIP061382, AIP075655, and AIP029105, and control treatments. Controls were non-inoculated and inoculated leaf disks, and the synthetic fungicide tebuconazole at 10 ppm as a positive control. Bacterial strains were prepared as described in Example 2. Each leaf disk was sprayed with 200 μL of the treatment (bacterial suspension or synthetic fungicide) on the adaxial surface 24 hours before inoculation with the pathogen, Podosphaera xanthii (strain obtained from Dr. McGrath laboratory, Cornell University). After treatment with the fungicide, leaf disks were incubated in the dark for 24 hours at 23° C.
# Leaf disks were inoculated by spraying a 1×10^6 suspension of P. xanthii conidia on the treated leaf surface. Treatments were placed into sealed clear plastic boxes and incubated for six days at 25° C. with a relative humidity of 80% and a 12 hour photoperiod. […] The number of powdery mildew colonies were also recorded for each treatment. […] Data was analyzed in SAS JMP version 14.0.
# Phytophthora infestans = details: late blight, tomato leaf disk; strains 1×10^8 CFU/ml, mefenoxam 5 ppm; severity assessed after 7 days
compound,measurement,setting,value
Mancozeb,Percent Disease Control,Mycosphaerella fijiensis,83.7%
same,Percent Disease Control,[1],52.9a %
COC(=O)N(OC)c1ccccc1COc1ccn(-c2ccc(Cl)cc2)n1 [Pyraclostrobin],"Percent Disease Control, Confirmation",[2],97.1%
same,"Percent Disease Control, Primary screen",[2],96.2%
CO/C=C(/C(=O)OC)c1ccccc1Oc1cc(Oc2ccccc2C#N)ncn1 [Azoxystrobin],Percent Disease Control,Phakopsora pachyrhizi,97.0%
CC(C)(C)C(O)(CCc1ccc(Cl)cc1)Cn1cncn1 (centres unmarked) [Tebuconazole],Percent Disease Control,Podosphaera xanthii,67.0%
COCC(=O)N(c1c(C)cccc1C)[C@H](C)C(=O)OC [Mefenoxam],"Percent Disease Control, Confirmation",Phytophthora infestans,75.0%
same,"Percent Disease Control, Primary screen",Phytophthora infestans,75.0%
